Our source for the IC50 values is ChEMBL document CHEMBL5728011, “Bicyclic heterocyclic compound” (2020).

The IC50 is the concentration at which inhibition is half-maximal.

For this assay, the target named is Kynurenine/alpha-aminoadipate aminotransferase, mitochondrial (Homo sapiens, UniProt Q8N5Z0). The assay can be described thus: Inhibitory Assay: To a reaction mixture (45 μL) containing 3.0 μmol/L kynurenine, 10 μmol/L pyridoxal phosphate, 2.0 ng/μL human recombinant KAT-II, and 150 mmol/L tris(hydroxymethyl)aminomethane-acetate buffer (pH 8.0) was added a 10% dimethyl sulfoxide solution (5 μL) of each test compound prepared, and the mixture was reacted at 37° C. for 1 hr. After the reaction, 50% trichloroacetic acid (5 μL) was added to terminate the reaction.The resultant kynurenic acid was quantified as follows by high performance liquid chromatography. An enzyme reaction mixture was separated by an octadecylsilane reversed-phase column (SC-50DS, Eicom Corporation; mobile phase: 250 mmol/L zinc acetate, 50 mmol/L sodium acetate, and 5.0% acetonitrile (pH 6.2)) incubated at 30° C., and kynurenic acid was quantified using a fluorescence detector (RF-20Axs, Shimadzu Corporation) at excitation wavelength 354 nm, detection wavelength 460 nm. The analytical curve was drawn every time by an external standard method. Each test compound was tested by dual measurement at each concentration. The kynurenic acid level in the presence of a test compound at each concentration was converted into % relative to kynurenic acid resulting from a reaction with an enzyme alone as 100%, and the obtained values were fitted to S-curve to determine IC50.
Kynurenine/alpha-aminoadipate aminotransferase, mitochondrial, sequence (Q8N5Z0 whole entry): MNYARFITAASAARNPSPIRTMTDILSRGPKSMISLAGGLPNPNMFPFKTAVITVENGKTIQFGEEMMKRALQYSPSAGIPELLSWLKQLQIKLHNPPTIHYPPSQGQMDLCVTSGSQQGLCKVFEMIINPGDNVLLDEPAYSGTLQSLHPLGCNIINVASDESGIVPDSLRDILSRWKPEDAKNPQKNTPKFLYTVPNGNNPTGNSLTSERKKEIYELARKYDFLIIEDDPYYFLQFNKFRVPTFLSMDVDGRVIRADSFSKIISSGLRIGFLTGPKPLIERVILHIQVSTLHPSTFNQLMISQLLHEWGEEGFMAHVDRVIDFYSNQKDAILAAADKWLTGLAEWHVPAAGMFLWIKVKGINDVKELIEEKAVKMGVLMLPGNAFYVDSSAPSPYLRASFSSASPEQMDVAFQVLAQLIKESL
With `CC1(C)CN(c2ncnc3nc(N4CCC[C@@H]4C(=O)NCc4ccccc4)sc23)CCO1`, the half-inhibitory concentration (IC50) was 71 nM.

In the case of `COCCc1nc(N(C)C)c2sc(N3CCC[C@@H]3C(=O)NCc3ccccc3)nc2n1`, the half-maximal inhibitory concentration (IC50) worked out at 64 nM.

Regarding `Cc1nc(N(C)C)c2sc(N3CCC[C@@H]3C(=O)NCc3ccccc3)nc2n1`, the half-maximal inhibitory concentration (IC50) came out at 50 nM.

For the molecule `CN(C)c1nc(C(F)(F)F)nc2nc(N3CCC[C@@H]3C(=O)NCc3ccccc3)sc12`, the half-inhibitory concentration (IC50) came out at 27 nM.

As to `COCCOc1ncnc2nc(N3CCC[C@@H]3C(=O)NCc3ccccc3)sc12`, the IC50 stood at 140 nM.

With `O=C(NCc1ccccc1)[C@H]1CCCN1c1nc2ncnc(N3CCOCC3)c2s1`, the IC50 stood at 47 nM.

`COCc1nc(N(C)C)c2sc(N3CCC[C@@H]3C(=O)NCc3ccccc3)nc2n1`: the IC50 stood at 82 nM.

Take `CON(C)c1ncnc2nc(N3CCC[C@@H]3C(=O)NCc3ccccc3)sc12`: the 50% inhibitory concentration (IC50) was 35 nM.
